Experimental data as given in ChEMBL document CHEMBL5678818, “Discovery of potent SOS1 inhibitors that block RAS activation via disruption of the RAS-SOS1 interaction” (Proc Natl Acad Sci U S A, 2019).

What was measured:
[1] = molecular target: Casein kinase I isoform gamma-1 (Homo sapiens) (UniProt Q9HCP0); experiment: Inhibition of CSNK1G1 (unknown origin) assessed as residual activity at 100 nM by KINOMEscan analysis relative to control
[2] = molecular target: T1, Ephrin type-B receptor 1 (Homo sapiens) (UniProt P54762); experiment: Inhibition of EPHB1 (unknown origin) assessed as residual activity at 100 nM by KINOMEscan analysis relative to control
T1 sequence (whole entry): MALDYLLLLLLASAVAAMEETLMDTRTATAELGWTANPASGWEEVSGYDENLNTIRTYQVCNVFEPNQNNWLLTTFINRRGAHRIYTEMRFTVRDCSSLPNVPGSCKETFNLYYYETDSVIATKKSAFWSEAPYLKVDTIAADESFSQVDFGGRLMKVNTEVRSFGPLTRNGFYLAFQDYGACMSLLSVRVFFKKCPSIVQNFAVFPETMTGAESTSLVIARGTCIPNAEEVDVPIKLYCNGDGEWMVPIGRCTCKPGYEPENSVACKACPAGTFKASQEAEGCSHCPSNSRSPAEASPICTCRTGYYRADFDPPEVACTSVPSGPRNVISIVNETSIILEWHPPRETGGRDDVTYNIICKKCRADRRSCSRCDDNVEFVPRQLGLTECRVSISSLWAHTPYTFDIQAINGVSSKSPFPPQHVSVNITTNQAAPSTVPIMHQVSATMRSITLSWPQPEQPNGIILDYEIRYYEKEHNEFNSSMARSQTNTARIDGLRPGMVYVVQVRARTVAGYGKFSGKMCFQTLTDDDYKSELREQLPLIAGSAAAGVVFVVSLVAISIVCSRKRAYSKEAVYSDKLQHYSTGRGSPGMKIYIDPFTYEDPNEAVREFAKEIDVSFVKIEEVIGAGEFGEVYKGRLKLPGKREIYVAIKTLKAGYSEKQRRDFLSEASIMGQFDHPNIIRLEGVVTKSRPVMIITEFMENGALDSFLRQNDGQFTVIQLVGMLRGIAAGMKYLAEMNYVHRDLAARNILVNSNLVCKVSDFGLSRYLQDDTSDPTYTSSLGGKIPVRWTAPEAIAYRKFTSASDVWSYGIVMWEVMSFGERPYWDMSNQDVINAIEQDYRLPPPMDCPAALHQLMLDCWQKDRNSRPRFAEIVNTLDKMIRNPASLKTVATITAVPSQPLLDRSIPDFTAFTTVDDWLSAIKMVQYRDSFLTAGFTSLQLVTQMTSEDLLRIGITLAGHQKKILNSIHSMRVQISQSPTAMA

GTPase KRas/RAF1 = GTPase KRas/RAF1 (Homo sapiens, UniProt P01116+P04049); experiment: Inhibition of N-terminal His10-tagged wild-type recombinant human KRAS (1 to 169 residues) expressed in Escherichia coli/N-terminal GST-tagged recombinant human CRAF RBD (51 to 131 residues) expressed in Escherichia coli protein-protein interaction preincubated for 30 mins with KRAS followed by CRAF RBD addition measured after 60 mins in presence of anti-6His-XL665/GTP by HTRF analysis
[3] = molecular target: T2, Serine/threonine-protein kinase TNNI3K (Homo sapiens) (UniProt Q59H18); experiment: Inhibition of TNNI3K (unknown origin) assessed as residual activity at 100 nM by KINOMEscan analysis relative to control
T2 sequence (whole entry): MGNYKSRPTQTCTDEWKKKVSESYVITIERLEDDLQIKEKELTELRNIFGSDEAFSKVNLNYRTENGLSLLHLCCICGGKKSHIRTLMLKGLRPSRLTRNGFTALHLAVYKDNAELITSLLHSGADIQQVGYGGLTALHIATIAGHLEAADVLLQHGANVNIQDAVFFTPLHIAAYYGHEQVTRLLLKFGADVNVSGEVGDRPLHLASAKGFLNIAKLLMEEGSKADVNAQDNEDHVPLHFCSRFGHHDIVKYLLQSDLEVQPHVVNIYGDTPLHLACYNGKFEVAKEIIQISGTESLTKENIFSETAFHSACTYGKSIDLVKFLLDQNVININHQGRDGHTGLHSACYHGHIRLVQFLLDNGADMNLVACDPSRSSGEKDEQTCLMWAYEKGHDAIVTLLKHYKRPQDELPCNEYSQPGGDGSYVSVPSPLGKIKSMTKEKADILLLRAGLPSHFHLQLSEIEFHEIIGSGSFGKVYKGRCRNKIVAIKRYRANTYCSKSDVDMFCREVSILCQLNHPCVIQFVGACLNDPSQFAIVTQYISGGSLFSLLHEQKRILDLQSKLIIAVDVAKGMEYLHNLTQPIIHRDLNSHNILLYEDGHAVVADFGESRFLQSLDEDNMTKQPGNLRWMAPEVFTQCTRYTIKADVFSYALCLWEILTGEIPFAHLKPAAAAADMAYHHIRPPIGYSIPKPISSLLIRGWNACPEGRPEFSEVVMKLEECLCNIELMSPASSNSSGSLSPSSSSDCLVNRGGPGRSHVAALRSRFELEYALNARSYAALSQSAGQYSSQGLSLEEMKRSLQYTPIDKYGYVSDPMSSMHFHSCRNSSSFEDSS

[4] = molecular target: Ribosomal protein S6 kinase alpha-1 (Homo sapiens) (UniProt Q15418); experiment: Inhibition of N-terminal RSK1 kinetic domain 1 (unknown origin) assessed as residual activity at 100 nM by KINOMEscan analysis relative to control
[5] = molecular target: Rho-associated protein kinase 1 (Homo sapiens) (UniProt Q13464); experiment: Inhibition of ROCK1 (unknown origin) assessed as residual activity at 100 nM by KINOMEscan analysis relative to control
[6] = molecular target: T3, Serine/threonine-protein kinase 17A (Homo sapiens) (UniProt Q9UEE5); experiment: Inhibition of DRAK1 (unknown origin) assessed as residual activity at 100 nM by KINOMEscan analysis relative to control
T3 sequence (whole entry): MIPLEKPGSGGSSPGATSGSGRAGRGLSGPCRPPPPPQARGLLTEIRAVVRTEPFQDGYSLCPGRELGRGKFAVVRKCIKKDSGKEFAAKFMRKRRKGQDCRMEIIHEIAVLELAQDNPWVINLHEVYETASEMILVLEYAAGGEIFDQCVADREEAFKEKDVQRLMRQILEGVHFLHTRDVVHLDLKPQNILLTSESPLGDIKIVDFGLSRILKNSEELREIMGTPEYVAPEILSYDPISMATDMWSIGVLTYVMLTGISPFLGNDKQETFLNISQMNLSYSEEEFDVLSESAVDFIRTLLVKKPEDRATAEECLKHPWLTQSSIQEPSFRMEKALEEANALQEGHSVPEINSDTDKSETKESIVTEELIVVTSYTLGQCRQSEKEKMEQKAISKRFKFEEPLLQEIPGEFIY

[7] = molecular target: Mitogen-activated protein kinase 1 (Homo sapiens) (UniProt P28482); experiment: Inhibition of ERK2 (unknown origin) assessed as residual activity at 100 nM by KINOMEscan analysis relative to control

`COc1cc2ncnc(N[C@H](C)c3cccc4ccccc34)c2cc1OC` was tested, and the Activity [1] was 99%, the Activity [2] was 83% and the IC50 (GTPase KRas/RAF1) was over 20 µM. It also gave an Activity [3] of 85%, an Activity [4] of 90% and an Activity [5] of 77%. The Activity [6] was 100% and the Activity [7] was 72%.
